In PMC5907308, “21st Brazilian Diabetes Society Congress” (Diabetology & Metabolic Syndrome, 2018):

Experiments:
[1] = test system: patients with type 2 diabetes; assay: Acute NEFA lowering with acipimox: 3 h OGTT and isoglycaemic IV glucose; assay type: in vivo, human
Experimental: Both tests were repeated after ACP ingestion (200 mg 2 h before and 1 h after starting glucose). C-peptide deconvolution was used to calculate IS rates; mathematical model to quantitate ß-cell function and IE. Main parameters: insulin secretion rate (ISR); glucose sensitivity (ßGS), i.e., the slope of the IS/glucose dose–response curve; glucose-induced potentiation (PGLU), a time-dependent modulation of the dose–response; incretin-induced potentiation (PINCR) calculated as the fold IS increment during OGTT compared to IV glucose.

obese patients = test system: obese patients
From the text: Alpha-linolenic acid supplementation effects on endoplasmic reticulum stress in visceral adipose tissue from morbid obese patients. 2017. Tese (Doutorado)—Faculdade de Medicina de Ribeirão Preto, Universidade de São Paulo, Ribeirão Preto, 2017. Currently, obesity is considered a worldwide epidemic. It is associated with chronic inflammation and stress activation of the endoplasmic reticulum (ERE), related to the pathogenesis of various diseases such as type 2 diabetes mellitus, cardiovascular diseases, cancer, hypertension, among others. In this context, studies are needed to find alternatives that improve the inflammatory process. […] The objective of our study was to evaluate the effects of alpha-linolenic acid (ALA) supplementation on the metabolism and stress of the endoplasmic reticulum in obese patients. A prospective, randomized, placebo-controlled, double-blind study was conducted. In total, 52 patients were randomized to supplementation with 3 g/day of ALA or placebo, 27 individuals from the omega-3/ALA group and 25 from the control group. Lipid, glycidic and inflammatory profile were evaluated before and after supplementation. Visceral adipose tissue (TAV) was collected during bariatric surgery after supplementation. The fatty acid profile incorporated in the TAV was evaluated by gas chromatography. Genes were evaluated by real-time PCR.

type 2 diabetic patient = assay: Case report: liraglutide added to insulin degludec and metformin; assay type: in vivo, human; details: last evaluation
Experimental: patient one, type 2 diabetic for 3 years, using Gliclazide 60 mg/day and Metformin 1500 mg/day. They reported asthenia and difficulty losing weight. […] To optimize patient glycemic control and weight loss, Liraglutide 1.2 mg/day was initiated. […] The insulin dose was reduced to 10 U and reassessed in 30 days for possible discontinuation of insulin therapy. GLP- 1 receptor agonists stimulate insulin secretion in a […] manner, inhibit glucagon secretion and hepatic glucose output, delay gastric emptying, induce satiety, reduce appetite, and cause weight loss. […] It is a therapeutic option with action well established in weight loss, metabolic and glycemic improvement in the DM2 patient. However, its action on HbA1C reduction was independent of weight loss, evidencing intensive glycemic control with HbA1C between 6.5 and 7.0% even with discrete or even absent weight loss.

[2] = test system: participants with type 2 diabetes and high cardiovascular risk; assay: LEADER trial, renal outcomes; assay type: in vivo, human
From the text: Background: The effects of liraglutide, a long-acting glucagon-like peptide-1(GLP-1) analog, on renal outcomes in type 2 diabetes are unknown. We conducted a randomized, double-blind, placebo-controlled trial comparing liraglutide vs placebo, both on a background of standard of care, in participants with type 2 diabetes and high cardiovascular risk.
Renal events were key secondary outcomes. The primary renal outcome was a composite of new onset of persistent macroalbuminuria, persistent doubling of serum creatinine, end stage renal disease (ESRD), or death due to renal disease. Risk of renal outcomes was determined using intention-to-treat in time-to-event analyses; competing risk of death was taken into account. Change of eGFR and loss of eGFR by > − 30% was also analyzed.

male Wistar rats = assay type: in vivo, rat
From the text: Background: Glucocorticoids (GCs) are a group of drugs with immunosuppressive and antiinflammatory action, its mechanism of action is related to the suppressing the release of proinflammatory cytokines. In addition, GCs may interfere with carbohydrate metabolism, by antagonizing various peripheral actions of insulin, and from this action, trigger changes in the biochemical profile, mainly regarding the lipid representation. The present study aimed to evaluate the dose–response influence of prednisone in the biochemical profile of rats. […] The treatment was daily with a duration of 21 days, with fasting glycemic measures being evaluated in the first (zero) and last day (21). Then the rats were anesthetized and killed by decapitation, in order to collect the whole blood for serum biochemical analysis by spectrophotometry. All data were statistically evaluated with significance of 5%.

[3] = test system: patient with schizophrenia; assay: New-onset diabetes caused by atypical antipsychotic, case report; assay type: in vivo, human
From the text: Case report: A patient, previously healthy, had been diagnosed with schizophrenia and started treatment with risperidone. Due to the lack of response, the medication was switched to olanzapine. After 2 years on the new treatment, however, they experienced polyuria, polydipsia and polyphagia, with a weight gain of approximately 12 kg in a period of 2 years. They were diagnosed with new-onset diabetes mellitus and hypertriglyceridemia and was referred to our center for evaluation. They were started on metformin 500 mg/day, NPH insulin 9 units before breakfast and 7 units bedtime, and bezafibrate 200 mg/day. […] LDL was not calculated due to the hypertriglyceridemia. Insulin was titrated to achieve glycemic control and autoantibodies (antiGAD, antiICA and anti-insulin) were requested, but they were negative. A letter was addressed to the psychiatry staff regarding olanzapine’s adverse events, which was exchanged to ziprasidone. […] Insulin dosing was reduced and further withdrawn 3 months after initiation of ziprasidone. Currently, 2 months thereafter, they are on good glycemic control with metformin and alogliptin.

[4] = test system: NGT subjects and T2D patients; assay: Hyperglycaemic clamp with somatostatin, without and with insulin infusion: renal glucose excretion; assay type: in vivo, human
Experimental: Then, a constant insulin infusion (1 mU min^−1 kg^−1) was started and maintained for additional 3 h (INS period) while clamping glycaemia at CT levels with the use of an ad hoc algorithm. Urines were collected separately for the two study periods for the measurement of glucose and creatinine.

[5] = test system: people with T2D and CKD stages 3-4; assay: AWARD-7 phase 3 study, 26 weeks, both arms combined with insulin lispro; assay type: in vivo, human
[6] = test system: subjects with type 1 diabetes; assay: onset 1, 26-week phase 3 trial, post hoc analysis by dose adjustment method; assay type: in vivo, human; details: before treatment
[7] = arms DU 1.5 mg and insulin glargine
[8] = subjects continuing carbohydrate counting (CC)
[9] = subjects using a simple bolus algorithm (BA)

Cc1cnc(C(=O)O)c[n+]1[O-] [ACP, acipimox]
decrease of NEFA OGTT-area-under-curve (AUC) ([1]; ACP 200 mg 2 h before and 1 h after starting glucose, n = 13, mean ± SD): 55 ± 14% | glucose sensitivity (ßGS) ([1]; after ACP, control 26 ± 9, p = ns): 32 ± 11 pmol min^−1 m^−2 mM^−1 | insulin secretion rate (ISR), isoglycaemic IV glucose ([1]; after ACP, control 58 ± 19): 53 ± 15 nmol m^−2 | insulin secretion rate (ISR), OGTT ([1]; after ACP, control 70 ± 23): 64 ± 20 nmol m^−2 | oral glucose sensitivity index, OGIS ([1]; after ACP, control 291 ± 60): 326 ± 44 ml min^−1 m^−2 | incretin-induced potentiation (PINCR) ([1]; in vivo): 1.17 ± 0.14 fold

CC/C=C\C/C=C\C/C=C\CCCCCCCC(=O)O [ALA, alpha-linolenic acid]
serum levels of IL-6, TNF-α and CRP (obese patients; after supplementation): no change | serum Leptin levels (obese patients; after supplementation, P = 0.0154): decrease | serum IL-4 (obese patients; after supplementation, p = 0.0211): increase | serum IP-10 (obese patients; after supplementation, p = 0.0410): decrease | incorporation of ALA, EPA and DHA into visceral adipose tissue (TAV) (obese patients; gas chromatography): Significant incorporation | gene expression of XBP1, sXBP1, EIF2-α, GADD34 and CCT4 chaperone in TAV (obese patients; real-time PCR): increase | gene expression of leptin and ATF-6 in TAV (obese patients; real-time PCR): decrease

CCCCCCCCCCCCCCCC(=O)N[C@@H](CCC(=O)NCCCC[C@H](NC(=O)[C@H](C)NC(=O)[C@H](C)NC(=O)[C@H](CCC(N)=O)NC(=O)CNC(=O)[C@H](CCC(=O)O)NC(=O)[C@H](CC(C)C)NC(=O)[C@H](Cc1ccc(O)cc1)NC(=O)[C@H](CO)NC(=O)[C@H](CO)NC(=O)[C@@H](NC(=O)[C@H](CC(=O)O)NC(=O)[C@H](CO)NC(=O)[C@@H](NC(=O)[C@H](Cc1ccccc1)NC(=O)[C@@H](NC(=O)CNC(=O)[C@H](CCC(=O)O)NC(=O)[C@H](C)NC(=O)[C@@H](N)Cc1c[nH]cn1)[C@@H](C)O)[C@@H](C)O)C(C)C)C(=O)N[C@@H](CCC(=O)O)C(=O)N[C@@H](Cc1ccccc1)C(=O)N[C@H](C(=O)N[C@@H](C)C(=O)N[C@@H](Cc1c[nH]c2ccccc12)C(=O)N[C@@H](CC(C)C)C(=O)N[C@H](C(=O)N[C@@H](CCCNC(=N)N)C(=O)NCC(=O)N[C@@H](CCCNC(=N)N)C(=O)NCC(=O)O)C(C)C)[C@@H](C)CC)C(=O)O [Liraglutide]
HbA1c (type 2 diabetic patient): 6.4% | total weight loss (type 2 diabetic patient; […] of total weight): 6 kg | albuminuria vs placebo ([2]; in vivo): increased less | eGFR vs placebo ([2]; in vivo): decreased significantly less | primary renal outcome, participants ([2]; median follow-up 3.84 years, placebo 337 of 4672): 268 of 4668 | primary renal outcome, HR vs placebo ([2]; p = 0.003): 0.787 [0.670;0.924] | new onset of persistent macroalbuminuria, HR vs placebo ([2]; p = 0.004): 0.74 [0.61;0.91] | new onset of persistent macroalbuminuria, participants ([2]; placebo 215 of 4672): 161 of 4668

C[C@]12C=CC(=O)C=C1CC[C@@H]1[C@@H]2C(=O)C[C@@]2(C)[C@H]1CC[C@]2(O)C(=O)CO [PRED, prednisone]
alanine aminotransferase (ALT) (male Wistar rats; 1.25 mg/kg, control 68.6 ± 24.8): 79.0 ± 25.1 U/L | triglycerides (male Wistar rats; 5.0 mg/kg, 21 days, CONT 144.1 ± 39.6): 76.0 ± 36.2 mg/dL | VLDL (male Wistar rats; 5.0 mg/kg, CONT 22.8 ± 7.9): 15.2 ± 7.2 mg/dL | HDL (male Wistar rats; 5.0 mg/kg, CONT 53.0 ± 7.7): 23.8 ± 4.2 mg/dL

Cc1cc2c(s1)Nc1ccccc1N=C2N1CCN(C)CC1 [olanzapine]
HDL ([3]; After 2 years on olanzapine): 65 mg/dL | Total cholesterol ([3]; After 2 years on olanzapine): 570 mg/dL | triglycerides ([3]; After 2 years on olanzapine): 3455 mg/dL | weight gain ([3]; period of 2 years on olanzapine): approximately 12 kg

INS: constant insulin infusion (1 mU min^−1 kg^−1)
exogenous glucose infusion rate (GIR) ([4]; INS period (insulin 1 mU min^−1 kg^−1, 3 h), NGT, CT period 36 ± 16): 157 ± 46 µmol kg MM^−1 min^−1 | fractional glucose excretion (FEG) ([4]; INS period, NGT, CT period 20 ± 5): 24 ± 3% | urinary glucose excretion (UGE), median [IQR] ([4]; INS period, NGT, CT period 690 [180]): 770 [320] µmol min^−1 | fractional glucose excretion (FEG) ([4]; INS period, T2D, CT period 17 ± 6): 17 ± 7% | exogenous glucose infusion rate (GIR) ([4]; INS period, T2D, CT period 26 ± 12): 71 ± 47 µmol kg MM^−1 min^−1 | urinary glucose excretion (UGE), median [IQR] ([4]; INS period, T2D, CT period 490[280]): 530[310] µmol min^−1

dulaglutide
Nausea ([5]; arm DU 0.75 mg): 11.1% | diarrhea ([5]; arm DU 0.75 mg): 13.7% | vomiting ([5]; arm DU 0.75 mg): 5.8% | hypoglycemia rate (≤ 70 mg/dL) ([5]; arm DU 0.75 mg once weekly): 7.8 events/participant/year | Nausea [5, 7]: 19.8% | diarrhea [5, 7]: 15.6% | vomiting [5, 7]: 12.0% | hypoglycemia rate (≤ 70 mg/dL) ([5]; arms DU 1.5 mg once weekly and titrated daily insulin glargine): 5.5 events/participant/year

fast-acting insulin aspart [faster aspart]
HbA1c at baseline [6, 8]: 7.6% | HbA1c at baseline [6, 9]: 7.5%

insulin aspart [IAsp]
HbA1c at baseline [6, 8]: 7.6% | HbA1c at baseline [6, 9]: 7.6%
